The source of these data is US12630544B2, “Compound, α-synuclein aggregate binder, and use thereof” (NATIONAL INSTITUTES FOR QUANTUM SCIENCE AND TECHNOLOGY, priority 2020, dated 2026).

Molecules are shown by their SMILES.

The nature of test [1]: Ex vivo imaging (autoradiography) of brain of physiological saline-injected mouse. The test is classed as in vivo. As to conditions: intravenous, brain collected 40 minutes after administration. The method, then: A physiological saline-injected mouse was anesthetized with 1.5% (v/v) isoflurane. Then, [^18F]SPAL-T-06 (28.9 MBq) was intravenously injected into the physiological saline-injected mouse. Forty minutes after the administration of [^18F]SPAL-T-06, the brain was collected and frozen. In a cryostat (HM560), frozen coronal sections each having a thickness of 20 μm and respectively including positions at 0.50 mm, −0.46 mm, −1.94 mm, −3.16 mm, and −6.64 mm from the bregma were prepared. Each section was air-dried, and then placed in contact with an imaging plate for 15 minutes in a cassette. Thereafter, autoradiographs were obtained with use of BAS-5000 (Fuji Film).

In test [2] the target is T1, lesions caused by phosphorylated α-synuclein (Homo sapiens, UniProt P37840).
T1 construct: α-synuclein aggregates formed in the brain of the DLB patient; from tissue; host or cells: post-mortem human brain: amygdala of DLB patient (sections or homogenate); cerebellum of MSA patient
In words: In vitro autoradiography of human brain sections (DLB, MSA, healthy subject). The test is classed as binding. As to conditions: 10 nM. The source says:
Postmortem human brains were obtained in autopsies carried out with respect to a DLB patient, a multiple system atrophy (MSA) patient, and a healthy subject. In a cryostat (HM560, Carl Zeiss), frozen tissue from the DLB patient and frozen tissue from the healthy subject were sliced into sections each having a thickness of 20 μm. Brain tissue from the MSA patient was fixed in 10% neutral buffered formalin, embedded in a paraffin block, and sliced into sections each having a thickness of 6 μm.
Postfixed fresh frozen sections of amygdala tissue from the brain of the DLB patient and the frontal cortex tissue from the brain of the healthy subject and deparaffinized sections of formalin-fixed paraffin-embedded cerebellum tissue from the brain of the MSA patient were used. Each brain tissue section and [^18F]SPAL-T-06 (final concentration: 10 nM) were incubated in 50 mM Tris-HCl containing 20% ethanol at room temperature for 1 hour. In order to detect specific binding, the brain tissue section was also incubated in 50 mM Tris-HCl (containing 20% ethanol) containing [^18F]SPAL-T-06 (final concentration: 10 nM) and non-labeled SPAL-T-06 (final concentration: 10 μM). Subsequently, the section was washed with 50 mM Tris-HCl (containing 20% EtOH) at 4° C. for 2 minutes. This washing was carried out twice. Thereafter, the section was rinsed with MilliQ. […]

In test [3] the target is homogenate of the brain of the AD patient (tau aggregates or amyloid β aggregates). The test is described as follows: In vitro binding test, homogenate of the brain of the AD patient. More on the design: species or system human. As to conditions: [18F]SPAL-T-06 5 nM displaced by non-labeled SPAL-T-06 0.01 nM to 1 μM; frontal cortex; room temperature 30 minutes. The method, then: (§1) Fresh frozen tissue from the amygdala in the brain of a DLB patient and fresh frozen tissue from the frontal cortex in the brain of an AD patient were used. To each fresh frozen brain tissue, zirconia beads (ZB-20, TOMY) and a buffer solution which was 10 times the wet weight of the tissue were added. A mixture thus obtained was smashed with use of Micro Smash (MS-100R, TOMY) and then stored at −80° C. A homogenate of the brain of the DLB patient or a homogenate of the brain of the AD patient, [^18F]SPAL-T-06 (final concentration: 5 nM), and non-labeled SPAL-T-06 (final concentration: 0.01 nM to 1 μM) were mixed into a Tris-HCl buffer solution (containing 20% ethanol). Incubation was carried out at room temperature for 30 minutes, and then B/F separation (B: bound ligand, F: free ligand) was carried out by suction filtration and washing. Thereafter, radioactivity captured on a glass filter was measured with use of a gamma counter (2480WIZARD2, ParkinElmer). With regard to the concentration of each non-labeled SPAL-T-06, a test was carried out in triplicate. Results were analyzed with use of Prism 6J (GraphPad), displacement curves of the tested compounds were obtained, and then IC50 of each was calculated.

The subject of test [4] is α-synuclein aggregates. The test is described as follows: In vivo PET imaging of α-synuclein fibril-inoculated marmoset brain. As to conditions: intravenous injection.
The target of test [5] is T2, homogenate of the brain of the DLB patient which was rich in α-synuclein lesions (Homo sapiens, UniProt P37840).
T2 construct: α-synuclein aggregates formed in the brain of the DLB patient; from tissue; host or cells: post-mortem human brain: amygdala of DLB patient (sections or homogenate); cerebellum of MSA patient
In words: In vitro binding test, homogenate of the brain of the DLB patient. The method, then:
as §1

Test [6] addresses T3, α-synuclein aggregates (Mus musculus, UniProt O55042).
T3 construct: from tissue; host or cells: brain of C57/BL/6 mouse inoculated in the striatum with recombinant (E. coli) mouse α-synuclein fibrils; sections or living animal
The test is described as follows: In vivo PET imaging of mouse brain (α-synuclein fibril-inoculated mouse vs physiological saline-injected mouse). The note with it: α-synuclein fibril-inoculated model mouse, intravenous injection. The method, then: First, mouse α-synuclein was expressed in and extracted from E. coli as a recombinant protein, and then incubated in vitro to form insoluble α-synuclein aggregates. The α-synuclein aggregates were then inoculated into the striatum of a mouse. […] Note that the inoculation of the α-synuclein aggregates into the striatum of the mouse was carried out in the following manner. First, hair on the head of a 9-week-old C57/BL/6 male mouse which had been anesthetized with 1.5% (v/v) isoflurane was removed, and the scalp was disinfected with isodine, followed by application of xylocaine and incision in the scalp to expose the skull. Then, a hole was drilled in the skull at a position of 0.05 mm posterior to the bregma and 2 mm lateral to the midline, and 3 μl of an α-synuclein fibril solution (mouse α-synuclein fibril (4 mg/ml) in saline) was injected into a position […] ventral to the brain surface with use of a glass pipette. The scalp was then returned and sutured.
PET scanning was carried out with use of a micro PET Focus 220 animal scanner (Siemens Medical Solutions), which provided 95 slices each having a thickness of 0.851 mm (center thickness), a […]. Before the scanning, an α-synuclein fibril-inoculated mouse and a physiological saline-injected mouse (control) were each anesthetized with 1.5% (v/v) isoflurane. […]

The IC50 is the concentration at which inhibition is half-maximal. The low end stands for higher potency, the high end for lower potency. Regarding `CNc1cnc(C#C/C=C/c2nc3ccc(OCC(O)C[18F])cc3s2)cn1` (centres unmarked) [[^18F]SPAL-T-06, [^18F]-(E)-1-fluoro-3-((2-(4-(5-(methylamino)pyrazin-2-yl)but-1-en-3-yn-1-yl)benzo[d]thiazol-6-yl)oxy)propan-2-ol], in test [1], the “nonspecific accumulation in the white matter area (ex vivo autoradiography)” value was “not seen”. Further, the “binding to areas rich in lesions caused by phosphorylated α-synuclein (autoradiography)” value in test [2] (DLB amygdala and MSA cerebellum sections, 1 hour) is “bound to areas in the brains of the DLB patient and the MSA patient which were rich in lesions caused by phosphorylated α-synuclein”. Moreover, the “non-specific binding in gray matter and white matter of healthy subject frontal cortex (autoradiography)” value in test [2] (section of frontal cortex of healthy subject) is reported as “hardly observed”. For the same molecule, the IC50 was 10.9 nM in test [3] and 1.58 nM in test [5] ([18F]SPAL-T-06 5 nM displaced by non-labeled SPAL-T-06 0.01 nM to 1 μM, amygdala, room temperature 30 minutes). Further, the “accumulation in the caudate nucleus rich in α-synuclein lesions (PET)” value with α-synuclein aggregates [4] was “clear accumulation”. In addition, in test [5] (DLB versus AD brain homogenate), the “binding selectivity with respect to α-synuclein aggregates versus tau or amyloid β aggregates (homogenate binding)” value is reported as “high binding selectivity”. Further, the “accumulation in striatum and cerebral cortex rich in α-synuclein lesions (PET)” value on α-synuclein aggregates [6] is given as “clear accumulation”.
